These results are taken from patent publication US12195482B1 (Arcus Biosciences, Inc., priority 2022, dated 2025).

Some results are limits rather than exact numbers.

The assay addresses T1, Axl (Homo sapiens, UniProt P30530).
T1 sequence (P30530 26-894): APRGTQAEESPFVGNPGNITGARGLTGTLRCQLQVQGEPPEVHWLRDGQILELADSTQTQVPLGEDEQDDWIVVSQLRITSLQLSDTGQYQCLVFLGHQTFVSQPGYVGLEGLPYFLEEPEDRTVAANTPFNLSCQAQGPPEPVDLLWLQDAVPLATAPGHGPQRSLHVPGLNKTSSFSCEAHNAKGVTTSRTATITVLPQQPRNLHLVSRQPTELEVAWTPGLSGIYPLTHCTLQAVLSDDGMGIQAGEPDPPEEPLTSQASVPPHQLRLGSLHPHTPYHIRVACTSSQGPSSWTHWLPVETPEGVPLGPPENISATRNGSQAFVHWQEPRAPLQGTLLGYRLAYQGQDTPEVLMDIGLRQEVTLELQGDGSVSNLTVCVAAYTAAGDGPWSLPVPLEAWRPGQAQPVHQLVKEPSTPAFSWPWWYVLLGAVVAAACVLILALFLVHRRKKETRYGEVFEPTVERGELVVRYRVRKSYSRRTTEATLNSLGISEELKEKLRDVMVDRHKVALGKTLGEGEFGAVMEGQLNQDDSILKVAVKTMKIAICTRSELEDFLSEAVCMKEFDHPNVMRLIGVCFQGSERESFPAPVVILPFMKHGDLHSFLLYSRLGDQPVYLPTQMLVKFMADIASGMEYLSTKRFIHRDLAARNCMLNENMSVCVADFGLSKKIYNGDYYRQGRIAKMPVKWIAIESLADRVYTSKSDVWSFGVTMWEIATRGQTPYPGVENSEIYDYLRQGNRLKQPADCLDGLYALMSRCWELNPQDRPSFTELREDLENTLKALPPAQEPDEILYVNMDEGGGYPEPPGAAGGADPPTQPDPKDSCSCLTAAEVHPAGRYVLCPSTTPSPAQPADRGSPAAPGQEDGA
Briefly: Biochemical potency, HTRF KinEASE-TK kinase assay. Conditions: 5 nM AXL, 700 μM ATP. Set-up: purchased Invitrogen. The essentials:
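Phosphorylation of a biotinylated tyrosine-kinase peptide (800 nM) by AXL (5 nM) or TYRO3/MER (1 nM) is measured at 700 µM ATP after 2 h at room temperature, following 1 h enzyme–compound preincubation. Signal is the time-resolved FRET ratio, converted to percent activity.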

Consider `COCCOc1cccnc1-c1ccc(-c2c[nH]c3ncc(-c4ccc5c(c4)CC[C@@H](N4C6COCC4C6)CC5)cc23)cc1` [Example 3, 6-[(7S)-2-(3-{4-[3-(2-Methoxyethoxy)pyridin-2-yl]phenyl}-1H-pyrrolo[2,3-b]pyridin-5-yl)-6,7,8,9-tetrahydro-5H-benzo[7]annulen-7-yl]-3-oxa-6-azabicyclo[3.1.1]heptane], for which the IC50 was < 100 nM. Take `c1ccc(-c2ccc(-c3c[nH]c4ncc(-c5ccc6c(c5)CC[C@@H](N5C[C@@H]7C[C@H]5CO7)CC6)cc34)cc2)nc1` [Example 33, (1S,4S)-5-[(7S)-3-[3-(4-Pyridin-2-ylphenyl)-1H-pyrrolo[2,3-b]pyridin-5-yl]-6,7,8,9-tetrahydro-5H-benzo[7]annulen-7-yl]-2-oxa-5-azabicyclo[2.2.1]heptane]: the IC50 is < 100 nM. For the molecule `Cc1cnc(-c2ccc(-c3c[nH]c4ncc(-c5ccc6c(c5)CC[C@@H](N5C7COCC5C7)CC6)cc34)cc2)c(C)n1` [Example 50, 6-[(7S)-2-{3-[4-(3,5-Dimethylpyrazin-2-yl)phenyl]-1H-pyrrolo[2,3-b]pyridin-5-yl}-6,7,8,9-tetrahydro-5H-benzo[7]annulen-7-yl]-3-oxa-6-azabicyclo[3.1.1]heptane], the IC50 is < 100 nM. As for `Cc1ccnnc1-c1ccc(-c2c[nH]c3ncc(-c4ccc5c(c4)CC[C@@](C)(N4CCC[C@H]4C)CC5)cc23)cc1` [Example 51, 4-methyl-3-(4-{5-[(7S)-7-Methyl-7-[(2R)-2-methylpyrrolidin-1-yl]-6,7,8,9-tetrahydro-5H-benzo[7]annulen-2-yl]-1H-pyrrolo[2,3-b]pyridin-3-yl}phenyl)pyridazine], the IC50 is < 100 nM.

With `N#Cc1cccnc1-c1ccc(-c2n[nH]c3ncc(-c4ccc5c(c4)CC[C@@H](N4C6COCC4C6)CC5)cc23)cc1` [Example 52, 2-(4-{5-[(7S)-7-{3-Oxa-6-azabicyclo[3.1.1]heptan-6-yl}-6,7,8,9-tetrahydro-5H-benzo[7]annulen-2-yl]-1H-pyrazolo[3,4-b]pyridin-3-yl}phenyl)pyridine-3-carbonitrile], the IC50 was < 100 nM. In the case of `Cc1cnc(C)c(-c2ccc(-c3c[nH]c4ncc(-c5ccc6c(c5)CC[C@@H](N5C7COCC5C7)CC6)cc34)cc2)n1` [Example 53, 6-[(7S)-2-{3-[4-(3,6-Dimethylpyrazin-2-yl)phenyl]-1H-pyrrolo[2,3-b]pyridin-5-yl}-6,7,8,9-tetrahydro-5H-benzo[7]annulen-7-yl]-3-oxa-6-azabicyclo[3.1.1]heptane] it was < 100 nM; in that of `Cc1nccnc1-c1ccc(-c2c[nH]c3ncc(-c4ccc5c(c4)CC[C@@H](N4C6COCC4C6)CC5)cc23)nc1` [Example 54, 6-[(7S)-2-{3-[5-(3-Methylpyrazin-2-yl)pyridin-2-yl]-1H-pyrrolo[2,3-b]pyridin-5-yl}-6,7,8,9-tetrahydro-5H-benzo[7]annulen-7-yl]-3-oxa-6-azabicyclo[3.1.1]heptane], < 100 nM. For `Cc1ccnnc1-c1ccc(-c2n[nH]c3ncc(-c4ccc5c(c4)CC[C@@H](N4C6COCC4C6)CC5)cc23)nc1` [Example 56, 6-[(7S)-2-{3-[5-(4-Methylpyridazin-3-yl)pyridin-2-yl]-1H-pyrazolo[3,4-b]pyridin-5-yl}-6,7,8,9-tetrahydro-5H-benzo[7]annulen-7-yl]-3-oxa-6-azabicyclo[3.1.1]heptane] the value was < 100 nM; for `Cc1cnc(-c2ccc(-c3c[nH]c4ncc(-c5ccc6c(c5)CC[C@@](C)(N5CCC[C@H]5C)CC6)cc34)cc2)c(C)n1` [Example 57, 3,5-Dimethyl-2-(4-{5-[(7S)-7-methyl-7-[(2R)-2-methylpyrrolidin-1-yl]-6,7,8,9-tetrahydro-5H-benzo[7]annulen-2-yl]-1H-pyrrolo[2,3-b]pyridin-3-yl}phenyl)pyrazine], < 100 nM. For `Cc1cnc(C)c(-c2ccc(-c3c[nH]c4ncc(-c5ccc6c(c5)CC[C@@](C)(N5CCC[C@H]5C)CC6)cc34)cc2)n1` [Example 58, 2,5-Dimethyl-3-(4-{5-[(7S)-7-methyl-7-[(2R)-2-methylpyrrolidin-1-yl]-6,7,8,9-tetrahydro-5H-benzo[7]annulen-2-yl]-1H-pyrrolo[2,3-b]pyridin-3-yl}phenyl)pyrazine] the value was < 100 nM; for `Cc1cnc(-c2ccc(-c3c[nH]c4ncc(-c5ccc6c(c5)CC[C@@H](N5CCCC5)CC6)cc34)cc2)c(C)n1` [Example 59, 3,5-Dimethyl-2-(4-{5-[(7S)-7-(pyrrolidin-1-yl)-6,7,8,9-tetrahydro-5H-benzo[7]annulen-2-yl]-1H-pyrrolo[2,3-b]pyridin-3-yl}phenyl)pyrazine], < 100 nM; for `Cc1cc(C)c(-c2ccc(-c3n[nH]c4ncc(-c5ccc6c(c5)CC[C@@H](N5C7COCC5C7)CC6)cc34)cc2)nn1` [Example 77, 6-[(7S)-2-{3-[4-(4,6-Dimethylpyridazin-3-yl)phenyl]-1H-pyrazolo[3,4-b]pyridin-5-yl}-6,7,8,9-tetrahydro-5H-benzo[7]annulen-7-yl]-3-oxa-6-azabicyclo[3.1.1]heptane], < 100 nM. For the molecule `Cc1cc(C)c(-c2ccc(-c3n[nH]c4ncc(-c5ccc6c(c5)CC[C@@](C)(N5CCC[C@H]5C)CC6)cc34)cc2)nn1` [Example 78, 4,6-Dimethyl-3-(4-{5-[(7S)-7-methyl-7-[(2R)-2-methylpyrrolidin-1-yl]-6,7,8,9-tetrahydro-5H-benzo[7]annulen-2-yl]-1H-pyrazolo[3,4-b]pyridin-3-yl}phenyl)pyridazine], the IC50 was < 100 nM.

In the case of `Cc1cc(C)c(-c2ccc(-c3c[nH]c4ncc(-c5ccc6c(c5)CC[C@@H](N5C7COCC5C7)CC6)cc34)cc2)nn1` [Example 80, 6-[(7S)-2-{3-[4-(4,6-Dimethylpyridazin-3-yl)phenyl]-1H-pyrrolo[2,3-b]pyridin-5-yl}-6,7,8,9-tetrahydro-5H-benzo[7]annulen-7-yl]-3-oxa-6-azabicyclo[3.1.1]heptane], the IC50 is < 100 nM. `CC(C)(C#N)c1cccnc1-c1ccc(-c2n[nH]c3ncc(-c4ccc5c(c4)CC[C@@H](N4C6COCC4C6)CC5)cc23)cc1` [Example 85, 2-Methyl-2-[2-[4-[5-[(7S)-7-(3-oxa-6-azabicyclo[3.1.1]heptan-6-yl)-6,7,8,9-tetrahydro-5H-benzo[7]annulen-3-yl]-1H-pyrazolo[3,4-b]pyridine-3-yl]phenyl]pyridine-3-yl]propanenitrile]: the IC50 was < 100 nM.

For the molecule `COc1ccnc(-c2ccc(-c3c[nH]c4ncc(-c5ccc6c(c5)CC[C@@H](N5C7COCC5C7)CC6)cc34)cc2)c1C` [Example 86, 6-[(7S)-3-[3-[4-(4-Methoxy-3-methylpyridin-2-yl)phenyl]-1H-pyrrolo[2,3-b]pyridin-5-yl]-6,7,8,9-tetrahydro-5H-benzo[7]annulen-7-yl]-3-oxa-6-azabicyclo[3.1.1]heptane], the IC50 was < 100 nM. For `COc1ccnc(-c2ccc(-c3n[nH]c4ncc(-c5ccc6c(c5)CC[C@@H](N5C7COCC5C7)CC6)cc34)cc2)c1C` [Example 87, 6-[(7S)-3-[3-[4-(4-Methoxy-3-methylpyridin-2-yl)phenyl]-1H-pyrazolo[3,4-b]pyridin-5-yl]-6,7,8,9-tetrahydro-5H-benzo[7]annulen-7-yl]-3-oxa-6-azabicyclo[3.1.1]heptane] the value was < 100 nM; for `FC(F)(F)c1cccnc1-c1ccc(-c2n[nH]c3ncc(-c4ccc5c(c4)CC[C@@H](N4C6COCC4C6)CC5)cc23)cc1` [Example 88, 6-[(7S)-3-[3-[4-[3-(Trifluoromethyl)pyridin-2-yl]phenyl]-1H-pyrazolo[3,4-b]pyridin-5-yl]-6,7,8,9-tetrahydro-5H-benzo[7]annulen-7-yl]-3-oxa-6-azabicyclo[3.1.1]heptane], < 100 nM. On to `FC(F)c1cccnc1-c1ccc(-c2n[nH]c3ncc(-c4ccc5c(c4)CC[C@@H](N4C6COCC4C6)CC5)cc23)cc1` [Example 89, 6-[(7S)-3-[3-[4-[3-(Difluoromethyl)pyridin-2-yl]phenyl]-1H-pyrazolo[3,4-b]pyridin-5-yl]-6,7,8,9-tetrahydro-5H-benzo[7]annulen-7-yl]-3-oxa-6-azabicyclo[3.1.1]heptane], for which the IC50 was < 100 nM.

Usually IC50 stands for the concentration that gives 50% inhibition. A high value points to lower potency.
